The results in this text go back to US20060104978A1, “Methods and compositions for PDGF-C activation and inhibition” (LUDWIG INSTITUTE FOR CANCER RESEARCH, priority 2003, published 2006).

Test [1] has as its system tPA. Nature of the test: Processing of endogenous PDGF-CC by growing AG1523 cells with tPA inhibitors in serum-free medium. The class given is cell-based, human. The following applies: tPA-STOP 3.5-35 μM, aprotinin 100 μM in serum-free medium of AG1523 cells; immunoblot. As for the experimental part: (§1) All protease inhibitors were purchased from Sigma and the concentrations used were as follows: AEBSF 1 mM, bestatin 100 μM, leupeptin 100 μM, pepstatin A 10 μM, E64 100 μM, aprotinin 100 μM (˜3 TIU), EDTA 50 mM, and phosphoramidon 100 μM. The protease inhibitors were preincubated with conditioned AG1523 medium at room temperature for 30 min, and then incubated with recombinant PDGF-CC (ratio 10:2) at 37° C. overnight. Recombinant PDGF-CC species were analyzed by immunoblotting as above. To determine whether tPA is the major proteolytic enzyme responsible for the PDGF-CC processing in AG1523 conditioned medium, AG1523 cells were cultured in serum-free medium, with or without the addition of a synthetic tPA inhibitor tPA-STOP™ (3.5-35 μM, #544, American Diagnostica Inc.) or 100 μM aprotinin as a positive control. The conditioned serum-free medium was collected, and proteins were precipitated before SDS-PAGE and immunoblotting using antibodies against PDGF-C (see above).

Test [2] relates to tPA. In words: Ni-NTA pull-down of purified tPA by His6-tagged recombinant proteins. The format is binding, human. To be noted: Ni-NTA beads coated with His6-tagged protein, 1 μg purified tPA, 2 hours room temperature, eluted with imidazole. As for the experimental part:
The possibility of a direct protein-protein interaction between tPA and latent PDGF-CC was explored by developing a pull-down assay. Ni-NTA beads were allowed to bind recombinant His6-tagged latent PDGF-CC or PDGF-DD, and purified tPA was added and incubated. Following extensive washings, bound proteins were subsequently eluted with an imidazole-containing buffer, and the eluates were analyzed by immunoblotting using specific antibodies.
To determine a direct protein-protein interaction between tPA and PDGF-CC, His6-tagged recombinant protein species were bound to Ni-NTA-agarose (Qiagen) and then incubated with 1 μg of purified tPA for 2 hours at room temperature. Uncoated and PDGF-DD coated Ni-NTA beads were used as controls. The beads were washed thoroughly, and His6-tagged proteins were specifically eluted with 400 mM imidazole. Eluted proteins were analyzed by SDS-PAGE under reducing conditions and immunoblotted with antibodies against human tPA (see above). The membranes were subsequently stripped and reprobed with specific antibodies.
Target sequence in this assay (P00750 36-562): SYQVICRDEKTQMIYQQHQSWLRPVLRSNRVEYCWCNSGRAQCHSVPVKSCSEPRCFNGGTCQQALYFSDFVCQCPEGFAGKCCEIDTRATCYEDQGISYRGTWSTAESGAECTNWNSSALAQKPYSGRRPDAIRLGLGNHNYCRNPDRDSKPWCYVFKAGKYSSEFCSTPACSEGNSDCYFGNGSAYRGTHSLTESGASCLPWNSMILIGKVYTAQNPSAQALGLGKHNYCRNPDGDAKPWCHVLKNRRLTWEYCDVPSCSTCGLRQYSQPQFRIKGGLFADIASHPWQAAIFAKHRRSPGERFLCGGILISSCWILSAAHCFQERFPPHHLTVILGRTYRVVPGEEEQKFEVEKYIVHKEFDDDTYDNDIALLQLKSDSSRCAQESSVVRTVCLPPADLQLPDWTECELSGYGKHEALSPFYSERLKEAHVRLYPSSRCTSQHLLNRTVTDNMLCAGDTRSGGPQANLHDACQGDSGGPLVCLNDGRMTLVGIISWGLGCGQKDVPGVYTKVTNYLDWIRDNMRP

For test [3], the system named is secreted protease(s) present in the conditioned media from AG1523 cells. In words: In vitro cleavage of recombinant latent PDGF-CC by AG1523 conditioned medium, protease inhibitor profile. The class given is biochemical, human. To be noted: inhibitor preincubated 30 min with AG1523 medium, then recombinant PDGF-CC 37° C. overnight; AEBSF 1 mM, leupeptin 100 μM, aprotinin 100 μM; immunoblot. As for the experimental part:
In an in vitro assay, the properties of the enzyme(s) involved in cleavage and activation of PDGF-CC were studied by mixing serum-free conditioned media from AG1523 cells with His6-tagged recombinant full-length PDGF-CC.
The class of enzyme(s) responsible for cleavage and activation of latent PDGF-CC was established by generating an enzyme inhibitor profile of the enzymatic activity (FIG. 1E). Eight different protease inhibitors (see FIG. 1F) were separately preincubated with conditioned media from AG1523 cells, and then incubated with His6-tagged recombinant full-length PDGF-CC.
as §1

As to `Cl.Cl.N=C(N)c1ccc(C=C2CCCCC(=Cc3ccc(C(=N)N)cc3)C2=O)cc1` [tPA-STOP™], in test [1], the “inhibition of processing of endogenous full-length PDGF-CC” value is on record as “in a dose-dependent way, prevented processing of full-length PDGF-CC”.

“PDGF-DD: recombinant His6-tagged latent full-length PDGF-DD”: the “binding of tPA in pull-down” value in test [2] is “failed to do so”.

Turning to aprotinin, in test [3], the “inhibition of proteolytic cleavage of latent PDGF-CC” value (“inhibition … of latent PDGF-CC” below) is recorded as “inhibited the proteolytic cleavage of latent PDGF-CC”. The “inhibition of processing of endogenous full-length PDGF-CC” value in test [1] was “efficiently inhibited processing of latent PDGF-CC”.

For `NCCc1ccc(S(=O)(=O)F)cc1` [AEBSF], in test [3], the “inhibition … of latent PDGF-CC” value was “inhibited the proteolytic cleavage of latent PDGF-CC”.

Consider `CC(=O)N[C@@H](CC(C)C)C(=O)N[C@@H](CC(C)C)C(=O)N[C@H](C=O)CCCNC(=N)N` [leupeptin], for which the “inhibition … of latent PDGF-CC” value in test [3] is “inhibited the proteolytic cleavage of latent PDGF-CC”.
